Results taken from patent US8067391B2, “ODCase inhibitors for the treatment of malaria” (University Health Network, priority 2005, dated 2011).
Where two headings read alike, the source gives them in different places.

What was measured:
[1] = tested on: Plasmodium vivax; assay: anti-malarial activity against Plasmodium vivax; type: cell-based; details: range stated for the group of compounds
[2] = tested on: Plasmodium falciparum; assay: anti-malarial activity against Plasmodium falciparum; type: cell-based; details: read-out: IC50 anti-malarial activity
Experimental: (§1) Assays comparing the antiplasmodial activities of the compounds of the invention were performed using the SYBR-Green method.^xlviii Briefly, the compounds were dissolved in DMSO to achieve a concentration of 10 mg/mL. Fifty microliters of RPMI-A were added to each well in a 96-well plate before 40 μL of RPMI-A and 10 μL of compound solution were added to the first well, the contents of the well were mixed, 50 μL were removed and added to the next well in the series and the process was repeated until the next-to-last well was reached. This produced a plate with a series of two-fold dilutions across it, except for the last well in the series, which contained RPMI-A alone. Fifty microliters of parasite culture (2% hematocrit, 2% parasitemia) were added to each well and the plates were then incubated at 37° C. in 95% N2, 3% CO2, and 2% O2 for 72 hrs.

[3] = tested on: P. burghei; assay: sensitivity of P. burghei strain compared with P. falciparum; details: P. burghei strain vs P. falciparum
Experimental: (§2) Efficacy studies in mice were performed using Ii to test the in vivo potential of this compound. Mice were infected with P. burghei, a mouse strain similar to the human malaria parasite P. falciparum. P. burghei strain is approximately 20 times less sensitive to Ii, so the dose in mice had to be adjusted accordingly. Parasitemia was monitored in mice after the drug was given at two different doses: 0.6 mg/mouse (n=3) and 6 mg/mouse (n=3). There was a control group of mice without any treatment with Ii.

[4] = tested on: human primary blood cells (PBLs); assay: human primary blood cell assay (H-3 incorporation, Con A stimulated); type: cell-based
Experimental: The following procedure was used to conduct human primary blood cell assays. Added 3 ml of PBS (OCI media facility) to 3 ml of serum depleted blood from normal, adult, human controls. Pipetted 6 ml Ficoll-Paque Plus (Amersham 17-1440-03) into a 15 ml centrifuge tube. Overlaid with PBS diluted blood. Centrifuged at 2500 rpm for 10 minutes at room temperature, no brake.
Removed and discarded upper (PBS) phase. Transferred cells at the PBS/Ficoll interface to a clean 15 ml centrifuge tube. Added 10 mL PBS. Then, centrifuged at 1250 rpm for 10 minutes at room temperature.
Discarded the supernatant and resuspended the cell pellet in Iscove's Modified Dulbecco's Medium (Gibco 12440 prepared by OCI Media facility) supplemented with 5.5×10^-5M 2ME (Fisher 03446-100) and 5% FBS (Hyclone SH-30397-03 Lot # KPG21604). Plated cells at 50,000 cells per well in 96 well flat bottom plates (Costar 3595). Added Concanavalin A (Pharmacia 17-0450-01) to a final concentration of 1.5 micro gm/ml. All conditions were set in triplicate.
Included untreated (Con A alone) controls. Cultured cells for 48 hours or 72 hours at 37° C. with 5% CO2 and 90% relative humidity. Added 0.5 uCi H-3 (Perkin Elmer NET027A) per well in 10 microL for the last 8 hours of the culture period. […]
Dried plates for 1 hour at 37° C. […] Data was collected by reading the radioactivity counts.

[5] = toxicity to human fibroblast (HFF) cell line; type: cell-based; details: human fibroblast (HFF) cells
[6] = tested on: ODCase; assay: ODCase inhibition (isothermal titration calorimetry enzymology); type: biochemical
Experimental: (a) Enzymology. ODCase from M. thermoautotrophicum (Mt) and compound Id were incubated at room temperature in the reaction buffer (50 mM Tris, 20 mM DTT, 40 mM NaCl, pH 7.5). The concentrations of the Id were 1×, 2.5×, 3.5× and 5× of the enzyme concentration, corresponding to 50, 125, 175 and 250 μM, respectively. The remaining enzyme activity in the enzyme-inhibitor reaction mixture was measured after 30 min, 2, 4, 8, 12, 24, 48 and 96 hours after the onset of incubation. Aliquots (1 μL) were removed from the reaction mixture and diluted to 2.5 mL with the assay buffer (50 mM Tris, 1 mM DTT, pH 7.5). […]
The inhibition of ODCase from P. falciparum (Pf) was assayed in a similar manner. […] The remaining activity of ODCase was measured at 37° C. for up to 48 hrs. […]
The Pf ODCase concentration in each of the samples (15, 30, and 45 min incubation times) was 60 nM. […] The remaining enzyme activities in these samples were measured by injecting 3 μL of 2.85 mM OMP. The enzyme activity at t=0 was measured by injecting OMP and 6-iodo-UMP simultaneously into the 60 nM enzyme solution in the ITC sample chamber. […] The control sample with 60 nM enzyme was incubated for 15-45 minutes at 37° C., and the enzyme activity was measured after the addition of 3 μL of 2.85 mM OMP. […]
Half-time of inactivation t1/2 was calculated from: t1/2=0.693/kinact (3)

[7] = tested on: P. falciparum ItG; assay: antiplasmodial activity, SYBR-Green method, P. falciparum ItG isolate; type: cell-based; details: Plasmodium falciparum, in vitro, FIG. 4, read-out: IC50 anti-plasmodial activity
Experimental: as §1
(§3) CHO cells (ATCC, Manassas, Va.) were grown in RPMI-1640 supplemented with 10% fetal calf serum (Sigma, St. Louis, Mo.), 25 mM HEPES and gentimicin (RPMI-10). Cells were seeded in 96 well plates and grown to 50% confluency in 100 μL of RPMI-10 per well prior to the addition of either DMSO alone, or a test compound dissolved in DMSO to a concentration of 10 mg/mL. […]

[8] = tested on: P. falciparum 3D7; assay: antiplasmodial activity, SYBR-Green method, P. falciparum 3D7 isolate; type: cell-based; details: Plasmodium falciparum, in vitro, FIG. 4, read-out: IC50 anti-plasmodial activity
Experimental: as §1, §3

[9] = toxicity to Vero cell line; type: cell-based; details: African green monkey, Vero cells
[10] = tested on: P. burghei; assay: mouse efficacy study against plasmodia; type: in vivo, mice
Source text: P. chabaudi chabaudi (Pcc) AS infection: They are two different species of mouse malaria that are used commonly in mice efficacy studies: P. chabaudi chabaudi AS and P. burghei. Pcc strain induces larger load of parasites and even some mouse strains die. If P. burghei strain is given to the mouse, they develop fewer parasites but become very sick. Pcc strain provides an opportunity in mice to observe if parasite numbers are reduced in the context of a reasonably healthy animal. Thus, Pcc strain was used in the efficacy model.
Blood-stage PCCAS was maintained in as described (Podoba J E and Stevenson, 1991)[2]. Infections in experimental animals were initiated by intraperitoneal injection of 1×10^6 P. chabaudi chabaudi AS-infected erythrocytes (PCCAS). Course of infection was monitored daily for 18 days by determining parasitemia on thin-blood smears stained with Diff Quik (American Scientific Products, Mississauga, ON). Compounds to be assayed were made up in RPMI 1640 at the concentration required to deliver the target dose in a total volume of 0.5 mL and were then filter sterilized. Compounds were stored at 4° C. prior to use. After infection the presence of parasites in the peripheral circulation was monitored daily until parasites were first observed. The mice were then injected daily for three consecutive days with either RPMI 1640 alone or compound dissolved in RPMI. The health of the animals was assessed daily and the parasitemia determined by examining blood films.
as §2

[11] = CHO cell toxicity assay (MTT); type: cell-based; details: Chinese hamster, CHO cells; CHO cell line
Experimental: CHO cells (ATCC, Manassas, Va.) were grown in RPMI-1640 supplemented with 10% fetal calf serum (Sigma, St. Louis, Mo.), 25 mM HEPES and gentimicin (RPMI-10). Cells were seeded in 96 well plates and grown to 50% confluency in 100 μL of RPMI-10 per well prior to the addition of either DMSO alone, or a test compound dissolved in DMSO to a concentration of 10 mg/mL. Compound gradients were prepared by adding 90 μL of RPMI-10 mixed with 10 μL of compound solution to the first well in the series, mixing, transferring 100 μL to next well and repeating until the next-to-last well was reached. After 48 hrs, the viability of the cells was determined by discarding the media in the wells and adding 100 μL of 10 mg/mL of 3-[4,5-dimethylthiazol-2-yl]-2,5-diphenyltetrazolium bromide (MTT, Sigma, St. Louis, Mo.) in RPMI-10, incubating the plates for an additional hour, and then removing the media and adding 100 μL of DMSO and reading the absorbance at 650 nm.^xlix The IC50 values of individual compounds were determined applying a non-linear regression analysis of the dose-response curve using the computer program SigmaPlot (Jandel Scientific).

[12] = range stated for the group of compounds

Compound | IC50 [1] [µM] | IC50 [2, 12] [µM] | further results
N#Cc1cc(=O)[nH]c(=O)n1[C@@H]1O[C@H](COP(=O)(O)O)[C@@H](O)[C@H]1O [Ib, 6-Cyanouridine-5′-monophosphate] | 20 to 2000 |  | IC50 [2]: 20 to 2000 µM
Nc1cc(=O)[nH]c(=O)n1[C@@H]1O[C@H](COP(=O)(O)O)[C@@H](O)[C@H]1O [Ie, 6-Amino uridine-5′-O-monophosphate] | 20 to 2000 | 20 to 2000 | 
O=c1cc(I)n([C@@H]2O[C@H](CO)[C@@H](O)[C@H]2O)c(=O)[nH]1 [Ii, 6-Iodo-uridine] |  |  | times less sensitive than P. falciparum [3]: approximately 20 times; toxicity not observed up to [4]: > 200 mM; IC50 [5]: > 300 µM; type of ODCase inhibition [6]: covalent inhibitor; IC50 [7]: 4.4 ± 1.3 µM; IC50 [8]: 6.2 ± 0.7 µM; CC50 [9]: > 300 µM; parasitemia in mice ([10]; mice infected with P. burghei, 0.6 and 6 mg/mouse, vs untreated controls, dose-dependent, FIG. 5): decreased parasitemia; survival rate ([10]; mice infected with P. burghei, treated vs controls, FIG. 6): longer survival time; survival, multiple dosing, higher doses ([10]; mouse efficacy study with multiple dosing, vs no drug, FIG. 7): increased survival; IC50 at 48 h [11]: 366 ± 45 µM
O=c1cc(I)n([C@@H]2O[C@H](COP(=O)(O)O)[C@@H](O)[C@H]2O)c(=O)[nH]1 [Ij, 6-Iodo uridine-5′-O-monophosphate] | 20 to 2000 | 20 to 2000 | 
Nc1c(F)c(=O)[nH]c(=O)n1[C@@H]1O[C@H](CO)[C@@H](O)[C@H]1O [In, 5-Fluoro-6-amino uridine] | 20 to 2000 | 20 to 2000 | 

More lines, main results first:

IC50 [1] [µM] | IC50 [2, 12] [µM] | Compound | further results
20 to 2000 | 20 to 2000 | Nc1cc(=O)[nH]c(=O)n1[C@@H]1O[C@H](CO)[C@@H](O)[C@H]1O [Compound Ic, 6-Amino uridine] | 
20 to 2000 | 20 to 2000 | COC(=O)c1cc(=O)[nH]c(=O)n1[C@@H]1O[C@H](CO)[C@@H](O)[C@H]1O [Compound It, 6-Methoxycarbonyl uridine] | 
20 to 2000 | 20 to 2000 | N#Cc1cc(=O)[nH]c(=O)n1[C@@H]1O[C@H](CO)[C@@H](O)[C@H]1O [Ia, 6-Cyanouridine] | 
20 to 2000 | 20 to 2000 | [N-]=[N+]=Nc1cc(=O)[nH]c(=O)n1[C@@H]1O[C@H](CO)[C@@H](O)[C@H]1O [Id, 6-Azido uridine] | 
20 to 2000 | 20 to 2000 | [N-]=[N+]=Nc1cc(=O)[nH]c(=O)n1[C@@H]1O[C@H](COP(=O)(O)O)[C@@H](O)[C@H]1O [If, 6-Azido uridine-5′-O-monophosphate] | 
20 to 2000 | 20 to 2000 | [N-]=[N+]=Nc1c(F)c(=O)[nH]c(=O)n1[C@@H]1O[C@H](CO)[C@@H](O)[C@H]1O [Io, 5-fluoro-6-azido uridine] | 
20 to 2000 | 20 to 2000 | O=c1[nH]c(=O)n([C@@H]2O[C@H](CO)[C@@H](O)[C@H]2O)c(I)c1F [Ip, 5-fluoro-6-iodo uridine] | 
